Data published in patent US20170050980A1, “OXADIAZINE COMPOUNDS AND METHODS OF USE THEREOF” (FORUM Pharmaceuticals Inc., priority 2015, published 2017).

Each molecule was assayed on Aβ42 (assay: In vitro cell screening assay; quantification of Aβ (1-42) peptide by sandwich ELISA). Settings: Human neuroglioma H4 cells stably expressing human wild type APP751; compounds 0.003-10 μM, incubated overnight (16-18 h); Aβ42 in supernatant by sandwich ELISA; normalized to DMSO and DAPT; read-out: Aβ42 H4 Prot Fre IC50.
Type: cell-based
Description: Human neuroglioma H4 cells were transfected with a pcDNA3.1 plasmid expressing human wild type APP751 cDNA and a stable cell line was generated using G418 selection. Cells were plated at 15,000 cells/well in Costar 96-well plates and placed at 37° C. and 5% CO2. Six hours after plating, cells were washed three times with Pro293™ chemically defined medium, followed by addition of compounds (0.003-10 μM, final DMSO concentration of 0.33%). Plates were incubated overnight (16-18 h) and supernatant was removed for quantification of Aβ peptides by sandwich ELISA. Cytotoxicity was evaluated using Cell-Titer 96W AQueous One Solution Cell Proliferation Assay according to the manufacturer's protocol.
Aβ peptide levels were quantified by sandwich ELISA. 96-well plates were coated with C-terminal specific Aβ antibodies recognizing either Aβ37, Aβ38, Aβ40, Aβ42, Aβ43 or a N-terminal specific Aβ antibody to detect Aβ 1-x. Plates were then blocked overnight at 4° C. with 1% bovine serum albumin (BSA) in PBS-T. Plates were washed and 100 μl of cultured cell supernatant or synthetic Aβ peptide standards and a detection antibody (4G8-HRP) were applied to the blocked plate and incubated overnight at 4° C. The next day, wells were washed before the addition of detection substrate (TMB peroxidase). Plates were then read for absorbance at 450 nm on a Molecular Devices SpectraMax M5e Microplate Reader.
Compound-treated samples were normalized to samples treated with DMSO alone (no inhibition) and to samples treated with DAPT. IC50 values were calculated from values reported as percent of DMSO controls using nonlinear regression, based on a sigmoidal dose—response (variable slope) model. […] used for calculation.

Row | SMILES | IC50 [nM]
1 | COc1nc(C2=NOC(C)C(c3ccc(Cl)cc3)N2)ccc1-n1cnc(Cl)c1 (single isomer, unassigned; (-)) [Example 42A, (−)-3-(5-(4-chloro-1H-imidazol-1-yl)-6-methoxypyridin-2-yl)-5-(4-chlorophenyl)-6-methyl-5,6-dihydro-4H-1,2,4-oxadiazine] | > 3000
2 | COc1nc(C2=NOC(C)C(c3cn(C)c4cc(F)c(Cl)cc34)N2)ccc1-n1cnc(C)c1 (single isomer, unassigned; (-)) [Example 21A, (−)-5-(5-chloro-6-fluoro-1-methyl-1H-indol-3-yl)-3-(6-methoxy-5-(4-methyl-1H-imidazol-1-yl)pyridin-2-yl)-6-methyl-5,6-dihydro-4H-1,2,4-oxadiazine] | 65
3 | COc1nc(C2=NOC(C3CC3)C(c3cn(C)c4ncc(F)c(F)c34)N2)ccc1-n1cnc(C)c1 (single isomer, unassigned; (+)) [Example 60A, (+)-6-cyclopropyl-5-(4,5-difluoro-1-methyl-1H-pyrrolo [2,3-b]pyridin-3-yl)-3-(6-methoxy-5-(4-methyl-1H-imidazol-1-yl)pyridin-2-yl)-5,6-dihydro-4H-1,2,4-oxadiazine] | 367
4 | COc1nc(C2=NOC(C)C(c3cccc(Cl)c3)N2)ccc1-n1cnc(C)n1 (single isomer, unassigned; (-)) [Example 53A, (−)-5-(3-chlorophenyl)-3-(6-methoxy-5-(3-methyl-1H-1,2,4-triazol-1-yl)pyridin-2-yl)-6-methyl-5,6-dihydro-4H-1,2,4-oxadiazine] | > 3000
5 | COc1nc(C2=NOC(C)C(c3ccc(Cl)c(Cl)c3)N2)ccc1-n1cnc(C)c1 (stereo not drawn) [Example 19A, (−)-cis-5-(3,4-dichlorophenyl)-3-[6-methoxy-5-(4-methyl-1H-imidazol-1-yl)pyridin-2-yl]-6-methyl-5,6-dihydro-4H-1,2,4-oxadiazine] | 910
6 | COc1nc(C2=NOC(C)C(c3nn(C)c4ccc(Cl)cc34)N2)ccc1-n1cnc(C)c1 (stereo not drawn) [Example 69A, (+)-(cis)-5-(5-chloro-1-methyl-1H-indazol-3-yl)-3-(6-methoxy-5-(4-methyl-1H-imidazol-1-yl)pyridin-2-yl)-6-methyl-5,6-dihydro-4H-1,2,4-oxadiazine] | 5.9
7 | COc1nc(C2=NOC(C)C(c3cn(C)c4ncc(Cl)c(F)c34)N2)ccc1-n1cnc(C)c1 (single isomer, unassigned; (+)) [Example 62A, (+)-5-(5-chloro-4-fluoro-1-methyl-1H-pyrrolo [2,3-b]pyridin-3-yl)-3-(6-methoxy-5-(4-methyl-1H-imidazol-1-yl)pyridin-2-yl)-6-methyl-5,6-dihydro-4H-1,2,4-oxadiazine] | 31.7
8 | COc1nc(C2=NOC(C)C(c3cn(C)c4ncc(F)c(F)c34)N2)ccc1-n1cnc(C)c1 (single isomer, unassigned; (-)) [Example 51B, (−)-5-(4,5-difluoro-1-methyl-1H-pyrrolo [2,3-b]pyridin-3-yl)-3-(6-methoxy-5-(4-methyl-1H-imidazol-1-yl)pyridin-2-yl)-6-methyl-5,6-dihydro-4H-1,2,4-oxadiazine] | 218
9 | COc1nc(C2=NOC(C)C(c3cccc(Cl)c3)N2)ccc1-c1ccnc(C)c1 (single isomer, unassigned; (-)) [Example 49A, (−)-5-(3-chlorophenyl)-3-(2-methoxy-2′-methyl-[3,4′-bipyridin]-6-yl)-6-methyl-5,6-dihydro-4H-1,2,4-oxadiazine] | 548
10 | COc1nc(C2=NOC(C)C(c3ccc(Cl)c(F)c3)N2)ccc1-n1cnc(C)c1 (stereo not drawn) [40-IB or 40-IIB, (+)-(cis)-5-(4-chloro-3-fluorophenyl)-3-(6-methoxy-5-(4-methyl-1H-imidazol-1-yl)pyridin-2-yl)-6-methyl-5,6-dihydro-4H-1,2,4-oxadiazine] | 7.5
11 | COc1nc(C2=NOC(C3CC3)C(c3cc(F)cc(F)c3)N2)ccc1-n1cnc(C)c1 (single isomer, unassigned; (+)) [Example 59A, (+)-6-cyclopropyl-5-(3,5-difluorophenyl)-3-(6-methoxy-5-(4-methyl-1H-imidazol-1-yl)pyridin-2-yl)-5,6-dihydro-4H-1,2,4-oxadiazine] | 20.7
12 | COc1nc(C2=NOC(C)(C)C(c3ccc(Cl)cc3)N2)ccc1-n1cnc(C)c1 (single isomer, unassigned; (-)) [Example 23A, (−)-5-(4-chlorophenyl)-3-[6-methoxy-5-(4-methyl-1H-imidazol-1-yl)pyridin-2-yl]-6,6-dimethyl-5,6-dihydro-4H-1,2,4-oxadiazine] | 1140
13 | COc1nc(C2=NOC(C3CC3)C(c3cn(C)c4ncc(Cl)cc34)N2)ccc1-n1cnc(C)c1 (stereo not drawn) [57A or 58A, (+)-(cis)-5-(5-chloro-1-methyl-1H-pyrrolo[2,3-b]pyridin-3-yl)-6-cyclopropyl-3-(6-methoxy-5-(4-methyl-1H-imidazol-1-yl)pyridin-2-yl)-5,6-dihydro-4H-1,2,4-oxadiazine] | 1240
14 | COc1nc(C2=NOC(C3CC3)C(c3cn(C)c4nccc(F)c34)N2)ccc1-n1cnc(C)c1 (single isomer, unassigned; (-)) [Example 63B, (−)-6-cyclopropyl-5-(4-fluoro-1-methyl-1H-pyrrolo [2,3-b]pyridin-3-yl)-3-(6-methoxy-5-(4-methyl-1H-imidazol-1-yl)pyridin-2-yl)-5,6-dihydro-4H-1,2,4-oxadiazine] | 105
15 | COc1cc(C2=NOC(C)C(c3ccc(Cl)cc3)N2)ccc1-n1cnc(C)c1 (single isomer, unassigned; (-)) [Example 43A, (−)-5-(4-chlorophenyl)-3-(3-methoxy-4-(4-methyl-1H-imidazol-1-yl)phenyl)-6-methyl-5,6-dihydro-4H-1,2,4-oxadiazine] | > 3000
16 | COc1nc(C2=NOC(C)C(c3cn(C)c4ncc(Cl)cc34)N2)ccc1-n1cnc(C)c1 (single isomer, unassigned; (+)) [Example 54D, (+)-5-(5-chloro-1-methyl-1H-pyrrolo [2,3-b]pyridin-3-yl)-3-(6-methoxy-5-(4-methyl-1H-imidazol-1-yl)pyridin-2-yl)-6-methyl-5,6-dihydro-4H-1,2,4-oxadiazine] | 5.1
17 | COc1nc(C2=NOC(C)C(c3cn(C)c4ncc(C(F)(F)F)cc34)N2)ccc1-n1cnc(C)c1 (single isomer, unassigned; (+)) [44D or 45D, (+)-3-(6-methoxy-5-(4-methyl-1H-imidazol-1-yl)pyridin-2-yl)-6-methyl-5-(1-methyl-5-(trifluoromethyl)-1H-pyrrolo[2,3-b]pyridin-3-yl)-5,6-dihydro-4H-1,2,4-oxadiazine] | 4.3
18 | COc1nc(C2=NOC(C)C(c3cn(C)c4ncc(C(F)(F)F)cc34)N2)ccc1-n1cnc(C)c1 (single isomer, unassigned; (-)) [44C or 45C, (−)-3-(6-methoxy-5-(4-methyl-1H-imidazol-1-yl)pyridin-2-yl)-6-methyl-5-(1-methyl-5-(trifluoromethyl)-1H-pyrrolo[2,3-b]pyridin-3-yl)-5,6-dihydro-4H-1,2,4-oxadiazine] | ~1380
19 | COc1nc(C2=NOC(C)C(c3cn(C)c4ncc(C5CC5)cc34)N2)ccc1-n1cnc(C)c1 (single isomer, unassigned; (+)) [Example 56D, (+)-5-(5-cyclopropyl-1-methyl-1H-pyrrolo [2,3-b]pyridin-3-yl)-3-(6-methoxy-5-(4-methyl-1H-imidazol-1-yl)pyridin-2-yl)-6-methyl-5,6-dihydro-4H-1,2,4-oxadiazine] | 12.5
